Tests used:
[1] = Dynamic surface tension at 51 ms bubble lifetime (bubble pressure tensiometer); assay type: physicochemical; conditions: for Surface tension reduction at dilute concentrations of KOH: KOH <1.5-2.0 M; for Surface tension reduction at dilute concentrations of KOH / Surface tension change as the KOH concentration is increased: 51 ms (FIG. 3); for Surface Tension @ 51 ms: no surfactant
Description: The dynamic surface tension of a liquid may be determined by using a tensiometer. The tensiometer may measure the dynamic surface tension of the liquid according to the bubble pressure method. The bubble pressure method includes injecting a gas, such as air, into a liquid that is to be analyzed. The gas enters the liquid through a capillary that is immersed within the liquid. The difference in pressure between the gas and the liquid is recorded at several gas flow rates. The difference in pressure for each flow rate that is required to form a bubble is proportional to the surface tension of the liquid by the Young-Laplace equation, as reproduced below: […]
where Δp is the pressure differential between the pressure inside the gas bubble and the pressure outside the gas bubble within the liquid in Newtons per square meter (N/m^2); d is the diameter of the capillary in meters (m); and σ is the surface tension of the liquid in Newtons per meter (N/m). The dynamic surface tension of the liquid is calculated for each gas flow rate using the Young-Laplace equation for each flow rate. The bubble lifetime is equal to the time elapsed between the formation of the each bubble and is recorded for each flow rate. The calculated dynamic surface tension values are plotted versus the bubble lifetime.
The method of measuring the dynamic surface tension of a liquid may generally include the steps of: (1) calibrating the tensiometer; (2) cleaning the capillary of the tensiometer; and (3) measuring the dynamic surface tension and bubble lifetime of the liquid with the tensiometer. The method of measuring the dynamic surface tension of a liquid with a tensiometer may, for example, generally follow American Society for Testing and Materials standard ASTM D3825-09.
A SITA science line t60 tensiometer, available from SITA Messetechnik GmbH (Dresden, Germany), may be used to measure the dynamic surface tension of a liquid, such as an electrolyte solution. The t60 tensiometer may be calibrated according to SITA Messetechnik instructions with the tensiometer in Calibration Mode. See SITA science line t60 Manual, p. 4, Section 12.1. The calibration is completed by placing the tip of the capillary tube of the tensiometer into about 25 mL of deionized (DI) water that is held within a glass vessel, such as a 50 mL beaker. The tip of the capillary tube should extend into the solution to the manufacturer's recommended depth that is signaled by a mark on the temperature probe of the tensiometer. The temperature of the DI water should be between about 20° C. and about 30° C.
The t60 tensiometer may then be cleaned according to SITA Messetechnik instructions with the tensiometer in Cleaning Mode. See Id., p. 20, Section 12.4. The capillary tube may first be rinsed with DI water. The cleaning is completed by placing the tip of the capillary tube of the tensiometer into about 25 mL of deionized (DI) water that is held within a glass vessel, such as a 50 mL beaker. The tip of the capillary tube should extend into the solution to the manufacturer's recommended depth that is signaled by a mark on the temperature probe of the tensiometer. The temperature of the DI water should be between about 20° C. and about 30° C. Air is rapidly bubbled through the capillary tube of the tensiometer for about two (2) minutes.
The t60 tensiometer may then be used to obtain dynamic surface tension of the liquid solution to be analyzed. The data may be obtained according to SITA Messetechnik instructions with the tensiometer in Auto-Measurement Mode. See Id., p. 18, Section 12.3. The auto-measurement is completed by placing the tip of the capillary tube of the tensiometer into about 25 mL of the liquid solution that is held within a glass vessel, such as a 50 mL beaker. The tip of the capillary tube should extend into the solution to the manufacturer's recommended depth that is signaled by a mark on the temperature probe of the tensiometer. […]

[2] = KOH solutions greater than 5M
Description: Three different N,N′-dimethylamine oxide surfactants from the same homologous series (i.e., same chemical structure except for tail length) were used to make aqueous alkali surfactant compositions having 2500 ppm surfactant and various concentrations of KOH, as shown by Tables 4, 5, and 6 below.

## CCCCB(O)O [Butyl Boronic Acid]
[1]; 1.5% surfactant, [KOH] 0
  SFT (dynamic surface tension at 51 ms): 62.3 mN/m
[1]; 1.5% surfactant, [KOH] 0.5
  SFT (dynamic surface tension at 51 ms): 71.8 mN/m
[1]; 1.5% surfactant, [KOH] 0.75
  SFT (dynamic surface tension at 51 ms): 73 mN/m
[1]; 1.5% surfactant, [KOH] 2
  SFT (dynamic surface tension at 51 ms): 84.6 mN/m
[1]; 1.5% surfactant, [KOH] 4
  SFT (dynamic surface tension at 51 ms): 73.5 mN/m
[1]; 1.5% surfactant, [KOH] 6.6
  SFT (dynamic surface tension at 51 ms): 53.8 mN/m
[1]; 1.5% surfactant, [KOH] 8.7
  SFT (dynamic surface tension at 51 ms): 43.6 mN/m

## CCCCCCCCCCCC[N+](C)(C)[O-] [Dodecyl-N,N′-Dimethylamine Oxide, reference compound]
[2]
  Solubility in KOH solutions: not soluble
[1]; 2500 ppm surfactant, KOH 0 M
  SFT (dynamic surface tension at 51 ms): 37.7 mN/m
[1]; 2500 ppm surfactant, KOH 1 M
  SFT (dynamic surface tension at 51 ms): 37.6 mN/m
[1]; 2500 ppm surfactant, KOH 3 M
  SFT (dynamic surface tension at 51 ms): 65.4 mN/m
[1]; 2500 ppm surfactant, KOH 5 M
  SFT (dynamic surface tension at 51 ms): 78.5 mN/m
[1]; 2500 ppm surfactant
  Surface tension reduction at dilute concentrations of KOH: do provide some surface tension reduction
  Surface tension change as the KOH concentration is increased: the surface tension increases

## [K+].[OH-] [KOH, Potassium hydroxide]
[1]; aqueous KOH 0.5 M
  Surface Tension @ 51 ms: 72.6 mN/m
[1]; aqueous KOH 1.0 M
  Surface Tension @ 51 ms: 73.6 mN/m
[1]; aqueous KOH 2.0 M
  Surface Tension @ 51 ms: 73 mN/m
[1]; aqueous KOH 3.0 M
  Surface Tension @ 51 ms: 76 mN/m
[1]; aqueous KOH 5.0 M
  Surface Tension @ 51 ms: 79.8 mN/m
[1]; aqueous KOH 8.7 M
  Surface Tension @ 51 ms: 86.9 mN/m

## CCCCCCCC[N+](C)(C)[O-] [Octyl-N,N′-Dimethylamine Oxide]
[2]
  Solubility in KOH solutions: no such limit
[1]; 2500 ppm surfactant, KOH 0 M
  SFT (dynamic surface tension at 51 ms): 59.8 mN/m
[1]; 2500 ppm surfactant, KOH 0.18 M
  SFT (dynamic surface tension at 51 ms): 56.5 mN/m
[1]; 2500 ppm surfactant, KOH 0.36 M
  SFT (dynamic surface tension at 51 ms): 57 mN/m
[1]; 2500 ppm surfactant, KOH 0.53 M
  SFT (dynamic surface tension at 51 ms): 56.3 mN/m
[1]; 2500 ppm surfactant, KOH 1.78 M
  SFT (dynamic surface tension at 51 ms): 50.6 mN/m
[1]; 2500 ppm surfactant, KOH 2.67 M
  SFT (dynamic surface tension at 51 ms): 44.4 mN/m
[1]; 2500 ppm surfactant, KOH 3.56 M
  SFT (dynamic surface tension at 51 ms): 38.2 mN/m
[1]; 2500 ppm surfactant, KOH 4.46 M
  SFT (dynamic surface tension at 51 ms): 34.5 mN/m
[1]; 2500 ppm surfactant, KOH 5.35 M
  SFT (dynamic surface tension at 51 ms): 32.9 mN/m
[1]; 2500 ppm surfactant, KOH 5.53 M
  SFT (dynamic surface tension at 51 ms): 30.7 mN/m
[1]; 2500 ppm surfactant, KOH 6.24 M
  SFT (dynamic surface tension at 51 ms): 32.1 mN/m
[1]; 2500 ppm surfactant, KOH 6.59 M
  SFT (dynamic surface tension at 51 ms): 32.1 mN/m
[1]; 2500 ppm surfactant
  Surface tension reduction at dilute concentrations of KOH: does not provide or provides little surface tension reduction
  Surface tension change as the KOH concentration is increased: provides significant surface tension reduction

## CCCCCCCCCCCCCC[N+](C)(C)[O-] [Tetradecyl-N,N′-Dimethylamine Oxide, reference compound]
[2]
  Solubility in KOH solutions: not soluble
[1]; 2500 ppm surfactant, KOH 0 M
  SFT (dynamic surface tension at 51 ms): 43.1 mN/m
[1]; 2500 ppm surfactant, KOH 1 M
  SFT (dynamic surface tension at 51 ms): 49.9 mN/m
[1]; 2500 ppm surfactant, KOH 5 M
  SFT (dynamic surface tension at 51 ms): 80.6 mN/m
[1]; 2500 ppm surfactant
  Surface tension reduction at dilute concentrations of KOH: do provide some surface tension reduction
  Surface tension change as the KOH concentration is increased: the surface tension increases
